Laboratory results published in ChEMBL document CHEMBL6074630, “Discovery of potent LRRK2 inhibitors by ensemble virtual screening strategy and bioactivity evaluation” (Eur J Med Chem, 2024).
Activity calls are given as the source filed them. The rule behind the calls is not given here.

Experiments:
[1] = biological target: T1, Leucine-rich repeat serine/threonine-protein kinase 2 (Homo sapiens, UniProt Q5S007, G2019S); assay: Inhibition of LRRK2 G2019S mutant (unknown origin) using LRRKtide as substrate incubated for 60 mins in presence of ATP by ADP-Glo reagent based assay
[2] = biological target: T2, Leucine-rich repeat serine/threonine-protein kinase 2 (Homo sapiens, UniProt Q5S007); assay: Inhibition of wild type LRRK2 (unknown origin) using LRRKtide as substrate at 10 uM incubated for 60 mins in presence of ATP by ADP-Glo reagent based assay relative to control
[3] = biological target: T2, Leucine-rich repeat serine/threonine-protein kinase 2; assay: Inhibition of wild type LRRK2 (unknown origin) using LRRKtide as substrate incubated for 60 mins in presence of ATP by ADP-Glo reagent based assay
[4] = test system: Leucine-rich repeat serine/threonine-protein kinase 2 (Homo sapiens), Q5S007 [G2019S]; assay: Inhibition of LRRK2 G2019S mutant (unknown origin) using LRRKtide as substrate at 10 uM incubated for 60 mins in presence of ATP by ADP-Glo reagent based assay relative to control
[5] = biological target: T2, Leucine-rich repeat serine/threonine-protein kinase 2; assay: Inhibition of 3xFlag-Puro-tagged wildtype human LRRK2 phosphorylation at Ser935 residue overexpressed in HEK293T cells incubated for 24 hrs by SDS-PAGE analysis; format: cell-based
[6] = Toxicity in wild type Zebrafish AB larvae administered from 3 days post fertilization and measured after 96 hrs; set-up: species or system Danio rerio; settings: in vivo
[7] = test system: Leucine-rich repeat serine/threonine-protein kinase 2 (Homo sapiens), Q5S007 [G2019S]; assay: (§1) Inhibition of 3xFlag-Puro-tagged human LRRK2 G2019S mutant phosphorylation at Ser935 residue overexpressed in HEK293T cells incubated for 24 hrs by SDS-PAGE analysis; format: cell-based
[8] = biological target: T1, Leucine-rich repeat serine/threonine-protein kinase 2; assay: as §1; format: cell-based
Danio rerio [9] = species on record: Danio rerio; assay: Neuroprotective activity against 6-OHDA-induced neurotoxicity in wild type Zebrafish AB larvae assessed as increase of total movement distance at 12.5 uM treated with compound from 3 days post fertilization and measured after 4 days; format: functional, organism-based; settings: time 4.0 day
Danio rerio [10] = species on record: Danio rerio; assay: Neuroprotective activity against 6-OHDA-induced neurotoxicity in wild type Zebrafish AB larvae assessed as increase in travel distance at high velocity at 12.5 uM treated with compound from 3 days post fertilization and measured after 4 days; format: functional, organism-based; settings: time 4.0 day
[11] = Toxicity in wild type Zebrafish AB larvae assessed as effect on survival rate at 12.5 to 100 uM administered from 3 days post fertilization and measured after 96 hrs; set-up: species or system Danio rerio; settings: in vivo, dose 12.5-100 µM
Danio rerio [12] = species on record: Danio rerio; assay: Neuroprotective activity against 6-OHDA-induced neurotoxicity in wild type Zebrafish AB larvae assessed as increase in travel distance at high velocity at 50 uM treated with compound from 3 days post fertilization and measured after 4 days; format: functional, organism-based; settings: time 4.0 day
Danio rerio [13] = species on record: Danio rerio; assay: Neuroprotective activity against 6-OHDA-induced neurotoxicity in wild type Zebrafish AB larvae assessed as increase in travel distance at high velocity treated with compound from 3 days post fertilization and measured after 4 days; format: functional, organism-based; settings: dose 12.5-50 µM, time 4.0 day
[14] = biological target: T2, Leucine-rich repeat serine/threonine-protein kinase 2; assay: Inhibition of 3xFlag-Puro-tagged wildtype human LRRK2 phosphorylation at Ser935 residue overexpressed in HEK293T cells at 10 uM incubated for 24 hrs by SDS-PAGE analysis relative to control; format: cell-based
[15] = test system: Leucine-rich repeat serine/threonine-protein kinase 2 (Homo sapiens), Q5S007 [G2019S]; assay: Inhibition of 3xFlag-Puro-tagged human LRRK2 G2019S mutant phosphorylation at Ser935 residue overexpressed in HEK293T cells at 10 uM incubated for 24 hrs by SDS-PAGE analysis relative to control; format: cell-based
Danio rerio [16] = species on record: Danio rerio; assay: Neuroprotective activity against 6-OHDA-induced neurotoxicity in wild type Zebrafish AB larvae assessed as improvement in swimming behavior at 150 uM treated with compound from 3 days post fertilization and measured after 4 days; format: functional, organism-based; settings: time 4.0 day
Danio rerio [17] = species on record: Danio rerio; assay: Neuroprotective activity against 6-OHDA-induced neurotoxicity in wild type Zebrafish AB larvae assessed as increase in total swimming distance at 150 uM treated with compound from 3 days post fertilization and measured after 4 days; format: functional, organism-based; settings: time 4.0 day
Danio rerio [18] = species on record: Danio rerio; assay: Neuroprotective activity against 6-OHDA-induced neurotoxicity in wild type Zebrafish larvae AB assessed as increase in travel distance at high velocity at 12.5 to 50 uM treated with compound from 3 days post fertilization and measured after 4 days; format: functional, organism-based; settings: dose 12.5-50 µM, time 4.0 day

T1 sequence (Q5S007 whole entry G2019S): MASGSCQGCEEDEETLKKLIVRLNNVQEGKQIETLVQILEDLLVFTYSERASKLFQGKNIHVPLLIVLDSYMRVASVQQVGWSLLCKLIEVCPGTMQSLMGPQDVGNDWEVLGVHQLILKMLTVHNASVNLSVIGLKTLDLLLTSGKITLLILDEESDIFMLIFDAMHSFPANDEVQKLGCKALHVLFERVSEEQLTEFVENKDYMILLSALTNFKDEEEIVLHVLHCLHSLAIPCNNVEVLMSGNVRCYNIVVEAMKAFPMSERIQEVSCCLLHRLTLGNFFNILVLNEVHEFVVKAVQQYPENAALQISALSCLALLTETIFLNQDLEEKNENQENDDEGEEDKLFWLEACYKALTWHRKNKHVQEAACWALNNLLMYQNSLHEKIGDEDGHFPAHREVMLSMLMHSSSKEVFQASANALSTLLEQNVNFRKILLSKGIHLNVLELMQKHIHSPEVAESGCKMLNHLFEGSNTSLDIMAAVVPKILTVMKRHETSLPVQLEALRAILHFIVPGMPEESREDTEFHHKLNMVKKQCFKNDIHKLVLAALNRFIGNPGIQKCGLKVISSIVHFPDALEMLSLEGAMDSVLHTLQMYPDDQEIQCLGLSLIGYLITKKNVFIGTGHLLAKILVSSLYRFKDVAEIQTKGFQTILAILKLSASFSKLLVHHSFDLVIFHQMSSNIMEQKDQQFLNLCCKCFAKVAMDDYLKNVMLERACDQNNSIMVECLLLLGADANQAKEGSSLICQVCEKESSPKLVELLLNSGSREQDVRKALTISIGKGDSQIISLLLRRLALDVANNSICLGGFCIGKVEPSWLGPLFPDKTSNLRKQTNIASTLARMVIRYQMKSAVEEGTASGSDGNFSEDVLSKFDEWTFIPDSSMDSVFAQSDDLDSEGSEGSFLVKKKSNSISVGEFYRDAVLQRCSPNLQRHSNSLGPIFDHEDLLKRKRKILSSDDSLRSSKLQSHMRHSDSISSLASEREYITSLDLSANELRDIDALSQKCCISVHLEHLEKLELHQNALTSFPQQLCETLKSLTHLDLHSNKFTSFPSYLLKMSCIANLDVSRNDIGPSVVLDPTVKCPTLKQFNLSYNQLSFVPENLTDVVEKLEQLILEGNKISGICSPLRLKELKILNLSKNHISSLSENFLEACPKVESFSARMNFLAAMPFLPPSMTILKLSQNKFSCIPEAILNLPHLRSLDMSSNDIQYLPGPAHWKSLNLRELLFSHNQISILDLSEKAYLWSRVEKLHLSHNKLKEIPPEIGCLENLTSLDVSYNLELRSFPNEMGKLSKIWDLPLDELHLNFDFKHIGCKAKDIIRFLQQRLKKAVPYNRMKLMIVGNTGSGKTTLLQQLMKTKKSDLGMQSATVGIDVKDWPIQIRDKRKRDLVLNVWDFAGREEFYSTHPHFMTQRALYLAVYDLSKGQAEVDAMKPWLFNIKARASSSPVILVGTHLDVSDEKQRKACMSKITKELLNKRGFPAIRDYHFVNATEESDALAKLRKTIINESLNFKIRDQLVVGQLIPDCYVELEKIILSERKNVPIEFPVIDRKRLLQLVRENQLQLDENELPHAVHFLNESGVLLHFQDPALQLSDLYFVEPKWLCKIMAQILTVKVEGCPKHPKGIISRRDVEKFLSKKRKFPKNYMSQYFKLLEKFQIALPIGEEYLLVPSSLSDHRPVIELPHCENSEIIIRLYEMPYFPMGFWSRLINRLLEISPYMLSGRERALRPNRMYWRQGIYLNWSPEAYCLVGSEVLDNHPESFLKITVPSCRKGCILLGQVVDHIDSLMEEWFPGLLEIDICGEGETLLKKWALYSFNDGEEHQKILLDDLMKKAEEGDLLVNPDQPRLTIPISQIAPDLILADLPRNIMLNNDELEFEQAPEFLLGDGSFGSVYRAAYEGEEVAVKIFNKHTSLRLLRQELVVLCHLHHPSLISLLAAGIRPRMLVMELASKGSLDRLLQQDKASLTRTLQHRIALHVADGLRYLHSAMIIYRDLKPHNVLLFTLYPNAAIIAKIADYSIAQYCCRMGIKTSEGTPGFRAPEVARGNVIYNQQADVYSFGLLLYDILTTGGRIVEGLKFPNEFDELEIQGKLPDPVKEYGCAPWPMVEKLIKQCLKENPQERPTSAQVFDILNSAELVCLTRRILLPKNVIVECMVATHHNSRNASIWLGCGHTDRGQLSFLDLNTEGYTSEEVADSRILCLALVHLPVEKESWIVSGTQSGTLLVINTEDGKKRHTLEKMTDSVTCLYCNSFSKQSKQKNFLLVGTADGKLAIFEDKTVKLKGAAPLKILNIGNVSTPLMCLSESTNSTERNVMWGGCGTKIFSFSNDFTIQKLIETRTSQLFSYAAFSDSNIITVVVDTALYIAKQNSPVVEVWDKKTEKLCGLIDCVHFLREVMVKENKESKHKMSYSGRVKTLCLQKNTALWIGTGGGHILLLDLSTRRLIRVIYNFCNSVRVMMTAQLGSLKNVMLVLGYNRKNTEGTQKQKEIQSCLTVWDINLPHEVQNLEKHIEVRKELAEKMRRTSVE
Leucine-rich repeat serine/threonine-protein kinase 2 (Homo sapiens), Q5S007 [G2019S], sequence (Q5S007 whole entry G2019S): as above
T2 sequence (Q5S007 whole entry): as the sequence (Q5S007 whole entry G2019S) above, with S2019G counted along it

Row | IC50 [1] | inhibition [2] | IC50 [3] | inhibition [4] | inhibition [14] | inhibition [15] | SMILES | IC50 [5] | inhibition [5] | LC50 at 96 h [6] | inhibition [7] | IC50 [8] | Activity [11] | other results
1 | 4920 nM | > 50% | 3120 nM | > 50% | – | – | Fc1ccc(-c2n[nH]cc2/C=N\Nc2nc3ccccc3[nH]2)cc1 | – | – | – | – | – | – | –
2 | 2090 nM | > 50% | 50300 nM | > 50% | – | – | CNC(=O)c1sc2ccc(NC(=O)c3n[nH]c4ccccc34)cc2c1OC | – | – | – | – | – | – | –
3 | 3630 nM | > 50% | 39400 nM | > 50% | – | – | Cn1cccc1-c1cc(C(=O)N/N=C2/C(=O)Nc3ccccc32)[nH]n1 | – | – | – | – | – | – | –
4 | 5590 nM | > 50% | 7150 nM | > 50% | – | – | c1ccc2c(c1)ncn1nc(-c3cc(C4CC4)[nH]n3)nc21 | – | – | – | – | – | – | –
5 | – | – | – | – | – | – | N[C@@H](Cc1ccc(O)c(O)c1)C(=O)O | – | – | – | – | – | – | Activity (Danio rerio [16]): Active; Activity (Danio rerio [17]): Active
6 | 556 nM | > 80% | 803 nM | > 80% | > 80% | > 60% | O=C(Nc1n[nH]c2ccccc12)c1cc(-c2cccnc2)n[nH]1 | 1190 nM | Dose-dependent-effect | – | Dose-dependent-effect | 605 nM | – | –
7 | – | > 80% | – | > 80% | > 80% | > 60% | c1cc(OCCN2CCCCC2)cc(-c2n[nH]c3ccc(-c4nnc[nH]4)cc23)c1 | – | Dose-dependent-effect | – | Dose-dependent-effect | – | – | Activity (Danio rerio [18]): inactive

Row | SMILES | IC50 [1] | inhibition [2] | IC50 [3] | inhibition [4] | inhibition [14] | inhibition [15] | IC50 [5] | inhibition [5] | LC50 at 96 h [6] | inhibition [7] | IC50 [8] | Activity [11] | other results
8 | COc1cc(C(=O)N2CCC(N3CCN(C)CC3)CC2)ccc1Nc1ncc2c(n1)N(C)c1ccccc1C(=O)N2C | – | – | 3.1 nM | – | – | – | 17 nM | Dose-dependent-effect | > 100000 nM | Dose-dependent-effect | 22.1 nM | Toxic | Activity (Danio rerio [9]): Active; Activity (Danio rerio [10]): Active
9 | CC[C@](C)(Nc1ccnc(-c2c[nH]c3ncccc23)n1)C(=O)NCC(F)(F)F | 218 nM | > 80% | 1340 nM | > 80% | > 80% | > 60% | 1670 nM | Dose-dependent-effect | > 100000 nM | Dose-dependent-effect | 337 nM | Toxic | Activity (Danio rerio [12]): Active; Activity (Danio rerio [13]): Dose-dependent-effect
10 | Cl.c1cc(OCCN2CCCCC2)cc(-c2n[nH]c3ccc(-c4nc[nH]n4)cc23)c1 | 22.4 nM | – | 9.6 nM | – | – | – | 27.1 nM | – | > 100000 nM | – | 49.1 nM | Toxic | –
